Some test systems named below: XF 498 CNS; P388 leukemia; SN12K1 renal; SNB-78 CNS; DMS 273 small cell lung; HOP-18 NSCLC; M19-MEL melanoma; P388/ADR leukemia; DMS 114 small cell lung; LXFL 529 NSCLC; RXF-631 renal.
Common to all, as to experiment: NCI tumour cell line growth inhibition, 48 h

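Briefly, cells in 96-well plates were exposed to five compound concentrations for 48 h, and endpoints were estimated by linear interpolation. At the GI50, growth is halved. Definition used: TGI = concentration required for complete inhibition of growth.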

Consider 7 compounds from PubChem BioAssay (NCI).

As for `COc1ccc(C2COc3c(ccc(O)c3C)C2)cc1OC` (centres undefined), the TGI in the test on XF 498 CNS was 124 µM; with P388 leukemia, above 125 µM; in the test on SN12K1 renal it was 154 µM; in the test on SNB-78 CNS, above 200 µM; with DMS 273 small cell lung, 199 µM; with HOP-18 NSCLC it was 30.8 µM. Further, the TGI with M19-MEL melanoma is above 200 µM; in the test on P388/ADR leukemia it was above 113 µM; in the test with DMS 114 small cell lung, 196 µM.
On to `C[n+]1c2ccccc2c(NC(CCCN=C(N)N)C(=O)O)c2ccccc21` (centres undefined), for which the TGI in the test on XF 498 CNS, in the test with LXFL 529 NSCLC, in the test on SNB-78 CNS, in the test on DMS 273 small cell lung, in the test with HOP-18 NSCLC and with M19-MEL melanoma was above 100 µM in each case. The compound further displayed a TGI with DMS 114 small cell lung above 100 µM.
With `CN(C)CCCNc1ccc2ncn3c4ccc(O)cc4c(=O)c1c23`, the TGI turned out to be 19.6 µM with XF 498 CNS; 17.7 µM in the test with LXFL 529 NSCLC; 26.6 µM with SNB-78 CNS; 12.1 µM with DMS 273 small cell lung; 27.4 µM with HOP-18 NSCLC; 12.2 µM with RXF-631 renal. In addition, the figures for the TGI in the test with M19-MEL melanoma and in the test with DMS 114 small cell lung were 15.3 µM and 16.7 µM, respectively.
With `COc1ccc(/C=N/n2cnc3c(c2=O)SC(=C(C#N)C#N)N3c2ccccc2)cc1`, the TGI in the test on LXFL 529 NSCLC, with HOP-18 NSCLC and in the test with M19-MEL melanoma was above 100 µM in each case.
In the case of `CCCC(=O)[O-].CCCC(=O)[O-].NCCN.NCCN.[Co+3].[O-][Cl+3]([O-])([O-])[O-]`, the GI50 with LXFL 529 NSCLC and with SNB-78 CNS was above 100 µM in each case. Besides, the TGI with LXFL 529 NSCLC and with SNB-78 CNS was above 100 µM in each case.
For the compound `CN(C)CCNC(=O)c1cccc2[nH]c(-c3ccccn3)nc12`, the TGI in the test with XF 498 CNS was above 100 µM; with P388 leukemia, 34.7 µM; in the test with SN12K1 renal, above 100 µM; in the test with SNB-78 CNS, above 100 µM; with DMS 273 small cell lung, above 72.2 µM; with HOP-18 NSCLC, above 87 µM. Also, the TGI was above 91.8 µM with M19-MEL melanoma, 53.5 µM in the test with P388/ADR leukemia and above 80.2 µM in the test on DMS 114 small cell lung.
Take `C=CCCC1(C)CCCNC1=S` (centres undefined): the TGI in the test on XF 498 CNS, in the test with DMS 273 small cell lung, with HOP-18 NSCLC and in the test with DMS 114 small cell lung was above 100 µM in each case.
